According to ChEMBL document CHEMBL1201862, “PubChem BioAssay data set” (2004):
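Growth conditions: 96-well plates. Treatment: test compound, 48 hours, 5 concentrations. Analysis: linear interpolation between bracketing concentrations; unreached endpoints set to highest concentration. GI50 marks 50% less growth.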 Activity calls are given as the source filed them. No stated cut-off is given here; in the data, active = GI50 up to about 1.1 µM and inactive = higher.

Key:
Test in all cases: NCI tumour cell line growth inhibition, 48 h
SK-MEL-2 = test system: SK-MEL-2
OVCAR-8 = test system: OVCAR-8
HCT-116 = test system: HCT-116
UO-31 = test system: UO-31
HOP-62 = test system: HOP-62
UACC-62 = test system: UACC-62
MOLT-4 = test system: MOLT-4
DLD-1 = test system: DLD-1
SK-MEL-28 = test system: SK-MEL-28
K562 = test system: K562
SN12C = test system: SN12C
SF-539 = test system: SF-539
OVCAR-3 = test system: OVCAR-3
SNB-75 = test system: SNB-75
DU-145 = test system: DU-145
Hs-578T = test system: Hs-578T
BT-549 = test system: BT-549
MDA-N = test system: MDA-N
MCF7 = test system: MCF7
MDA-MB-435 = test system: MDA-MB-435

SMILES	GI50 (SK-MEL-2)	GI50 (OVCAR-8)	GI50 (HCT-116)	GI50 (UO-31)	GI50 (HOP-62)	GI50 (UACC-62)	GI50 (MOLT-4)	GI50 (DLD-1)	GI50 (SK-MEL-28)	GI50 (K562)	GI50 (SN12C)	GI50 (SF-539)	GI50 (OVCAR-3)	GI50 (SNB-75)	GI50 (DU-145)	GI50 (Hs-578T)	GI50 (BT-549)	GI50 (MDA-N)	GI50 (MCF7)	GI50 (MDA-MB-435)
CN1CCn2c(Br)ccc2C1=O	> 100 µM (inactive)	> 100 µM (inactive)	> 100 µM (inactive)	> 100 µM (inactive)	> 100 µM (inactive)	> 100 µM (inactive)	> 100 µM (inactive)	> 10 µM (inactive)	> 100 µM (inactive)	> 100 µM (inactive)	> 100 µM (inactive)	> 100 µM (inactive)	> 100 µM (inactive)	–	–	–	–	–	–	–
CC(=O)OCC1OC(OC2C(CSC3OC(COC(C)=O)C(OC(C)=O)C(OC(C)=O)C3OC(C)=O)OC(OC(C)=O)C(OC(C)=O)C2OC(C)=O)C(OC(C)=O)C(OC(C)=O)C1OC(C)=O (stereo unspecified)	–	> 100 µM (inactive)	> 100 µM (inactive)	> 100 µM (inactive)	> 100 µM (inactive)	> 100 µM (inactive)	> 100 µM (inactive)	> 100 µM (inactive)	> 100 µM (inactive)	> 100 µM (inactive)	> 100 µM (inactive)	> 100 µM (inactive)	> 100 µM (inactive)	> 100 µM (inactive)	–	–	–	–	–	–
O=S1(=O)CSc2ccc3ccccc3c2-c2c1ccc1ccccc21	–	> 100 µM (inactive)	> 100 µM (inactive)	> 100 µM (inactive)	> 100 µM (inactive)	> 100 µM (inactive)	> 100 µM (inactive)	> 100 µM (inactive)	> 100 µM (inactive)	> 100 µM (inactive)	> 100 µM (inactive)	> 100 µM (inactive)	> 100 µM (inactive)	> 100 µM (inactive)	–	–	–	–	–	–
CCOC(=O)C1(c2ccccc2)CCCNCC1 (stereo unspecified)	> 100 µM (inactive)	39.4 µM (inactive)	58.9 µM (inactive)	> 100 µM (inactive)	32.4 µM (inactive)	> 100 µM (inactive)	45.9 µM (inactive)	58.5 µM (inactive)	> 100 µM (inactive)	> 100 µM (inactive)	39.4 µM (inactive)	–	74.6 µM (inactive)	> 100 µM (inactive)	–	–	–	–	–	–
CC(=O)/C(=C\C1=CCCO1)C(=O)Nc1ccccc1C	> 100 µM (inactive)	> 100 µM (inactive)	> 100 µM (inactive)	> 100 µM (inactive)	> 100 µM (inactive)	> 100 µM (inactive)	> 100 µM (inactive)	> 100 µM (inactive)	> 10 µM (inactive)	> 100 µM (inactive)	> 100 µM (inactive)	> 100 µM (inactive)	> 100 µM (inactive)	–	–	–	–	–	–	–
O=C(Oc1cncc(Cl)c1)c1cc2ccccc2sc1=O	24.7 µM (inactive)	> 100 µM (inactive)	78.3 µM (inactive)	> 100 µM (inactive)	54.3 µM (inactive)	29 µM (inactive)	23.7 µM (inactive)	–	46.5 µM (inactive)	31.7 µM (inactive)	60.3 µM (inactive)	18.5 µM (inactive)	60.5 µM (inactive)	27.8 µM (inactive)	89.1 µM (inactive)	38.9 µM (inactive)	57.7 µM (inactive)	78.2 µM (inactive)	39.4 µM (inactive)	29.5 µM (inactive)
CC(C)=CCOc1cc(NC(=S)c2ccsc2C)ccc1Cl	27.4 µM (inactive)	44.4 µM (inactive)	26.4 µM (inactive)	5.85 µM (inactive)	21.4 µM (inactive)	15.6 µM (inactive)	20.2 µM (inactive)	–	> 100 µM (inactive)	7.48 µM (inactive)	19 µM (inactive)	55.1 µM (inactive)	14.1 µM (inactive)	14.1 µM (inactive)	75.9 µM (inactive)	12.3 µM (inactive)	23.6 µM (inactive)	> 100 µM (inactive)	15.4 µM (inactive)	> 100 µM (inactive)
Fc1ccc(C(OCCN2CC3CC2CN3CCCc2ccccc2)c2ccc(F)cc2)cc1 (stereo unspecified)	9.95 µM (inactive)	3.23 µM (inactive)	5.86 µM (inactive)	12.3 µM (inactive)	11.4 µM (inactive)	11.1 µM (inactive)	3.61 µM (inactive)	–	2.96 µM (inactive)	3.11 µM (inactive)	10.3 µM (inactive)	2.37 µM (inactive)	9.98 µM (inactive)	0.955 µM (active)	10.1 µM (inactive)	10.1 µM (inactive)	11.8 µM (inactive)	6.27 µM (inactive)	6.08 µM (inactive)	5.3 µM (inactive)
COc1cc2cc(C(=O)N3C[C@H](CCl)c4c3cc(N)c3ccccc43)[nH]c2c(OC)c1OC	2.05 µM (inactive)	0.447 µM (active)	0.00695 µM (active)	0.005 µM (active)	3.05 µM (inactive)	2.44 µM (inactive)	7.82 µM (inactive)	–	0.0172 µM (active)	2.39 µM (inactive)	0.592 µM (active)	0.0284 µM (active)	0.555 µM (active)	2.19 µM (inactive)	0.409 µM (active)	0.0127 µM (active)	1.38 µM (inactive)	< 0.01 µM (active)	0.0023 µM (active)	0.00577 µM (active)
